# Test results from ChEMBL document CHEMBL5465560, “Selectivity Literature for EUbOPEN Chemogenomic Library” (2024).
# Key:
# [1] = target: T1, Myotonin-protein kinase (Homo sapiens) (UniProt Q09013); details: at 10 µM
# T1 sequence (whole entry): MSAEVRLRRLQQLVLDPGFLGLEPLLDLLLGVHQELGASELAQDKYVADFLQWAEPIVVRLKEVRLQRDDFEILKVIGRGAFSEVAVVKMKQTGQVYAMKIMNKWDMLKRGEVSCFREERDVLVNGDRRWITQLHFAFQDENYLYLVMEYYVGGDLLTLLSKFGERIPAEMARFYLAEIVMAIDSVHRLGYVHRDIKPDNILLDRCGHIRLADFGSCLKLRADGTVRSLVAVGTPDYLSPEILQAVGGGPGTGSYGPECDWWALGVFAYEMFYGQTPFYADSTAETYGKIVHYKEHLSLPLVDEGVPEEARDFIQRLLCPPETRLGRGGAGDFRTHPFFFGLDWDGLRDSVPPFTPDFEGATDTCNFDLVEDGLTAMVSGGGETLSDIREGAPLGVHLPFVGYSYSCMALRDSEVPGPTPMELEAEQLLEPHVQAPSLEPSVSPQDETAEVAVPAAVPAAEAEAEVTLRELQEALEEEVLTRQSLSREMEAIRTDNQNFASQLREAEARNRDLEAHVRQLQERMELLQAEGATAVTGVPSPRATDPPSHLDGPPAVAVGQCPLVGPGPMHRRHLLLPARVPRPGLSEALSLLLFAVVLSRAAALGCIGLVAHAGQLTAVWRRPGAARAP
# [2] = target: Calcium/calmodulin-dependent protein kinase kinase 1 (Homo sapiens) (UniProt Q8N5S9); test: Selectivity interaction (KinomeScan (DiscoverX)) EUB0000666a CAMKK1; details: at 10 µM
# Calcium/calmodulin-dependent protein kinase kinase 1 (Homo sapiens), sequence (Q8N5S9 whole entry, looked up): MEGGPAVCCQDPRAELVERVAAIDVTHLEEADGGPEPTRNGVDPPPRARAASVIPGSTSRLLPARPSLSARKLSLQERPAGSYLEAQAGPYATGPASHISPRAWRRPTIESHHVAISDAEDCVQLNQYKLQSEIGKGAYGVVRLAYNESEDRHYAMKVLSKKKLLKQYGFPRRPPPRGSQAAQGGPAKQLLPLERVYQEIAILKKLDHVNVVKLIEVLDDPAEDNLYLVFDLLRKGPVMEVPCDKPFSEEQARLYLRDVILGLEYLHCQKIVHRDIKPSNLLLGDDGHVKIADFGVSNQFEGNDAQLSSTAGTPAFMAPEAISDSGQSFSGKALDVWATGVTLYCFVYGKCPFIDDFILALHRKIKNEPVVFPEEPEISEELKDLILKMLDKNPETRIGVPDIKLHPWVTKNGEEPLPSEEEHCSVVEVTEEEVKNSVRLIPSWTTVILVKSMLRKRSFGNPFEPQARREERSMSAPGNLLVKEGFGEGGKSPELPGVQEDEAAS
# [3] = target: T2, Mitogen-activated protein kinase kinase kinase 5 (Homo sapiens) (UniProt Q99683); test: Selectivity interaction (KinomeScan (DiscoverX)) EUB0001049a MAP3K5; details: at 1 µM
# T2 sequence (whole entry): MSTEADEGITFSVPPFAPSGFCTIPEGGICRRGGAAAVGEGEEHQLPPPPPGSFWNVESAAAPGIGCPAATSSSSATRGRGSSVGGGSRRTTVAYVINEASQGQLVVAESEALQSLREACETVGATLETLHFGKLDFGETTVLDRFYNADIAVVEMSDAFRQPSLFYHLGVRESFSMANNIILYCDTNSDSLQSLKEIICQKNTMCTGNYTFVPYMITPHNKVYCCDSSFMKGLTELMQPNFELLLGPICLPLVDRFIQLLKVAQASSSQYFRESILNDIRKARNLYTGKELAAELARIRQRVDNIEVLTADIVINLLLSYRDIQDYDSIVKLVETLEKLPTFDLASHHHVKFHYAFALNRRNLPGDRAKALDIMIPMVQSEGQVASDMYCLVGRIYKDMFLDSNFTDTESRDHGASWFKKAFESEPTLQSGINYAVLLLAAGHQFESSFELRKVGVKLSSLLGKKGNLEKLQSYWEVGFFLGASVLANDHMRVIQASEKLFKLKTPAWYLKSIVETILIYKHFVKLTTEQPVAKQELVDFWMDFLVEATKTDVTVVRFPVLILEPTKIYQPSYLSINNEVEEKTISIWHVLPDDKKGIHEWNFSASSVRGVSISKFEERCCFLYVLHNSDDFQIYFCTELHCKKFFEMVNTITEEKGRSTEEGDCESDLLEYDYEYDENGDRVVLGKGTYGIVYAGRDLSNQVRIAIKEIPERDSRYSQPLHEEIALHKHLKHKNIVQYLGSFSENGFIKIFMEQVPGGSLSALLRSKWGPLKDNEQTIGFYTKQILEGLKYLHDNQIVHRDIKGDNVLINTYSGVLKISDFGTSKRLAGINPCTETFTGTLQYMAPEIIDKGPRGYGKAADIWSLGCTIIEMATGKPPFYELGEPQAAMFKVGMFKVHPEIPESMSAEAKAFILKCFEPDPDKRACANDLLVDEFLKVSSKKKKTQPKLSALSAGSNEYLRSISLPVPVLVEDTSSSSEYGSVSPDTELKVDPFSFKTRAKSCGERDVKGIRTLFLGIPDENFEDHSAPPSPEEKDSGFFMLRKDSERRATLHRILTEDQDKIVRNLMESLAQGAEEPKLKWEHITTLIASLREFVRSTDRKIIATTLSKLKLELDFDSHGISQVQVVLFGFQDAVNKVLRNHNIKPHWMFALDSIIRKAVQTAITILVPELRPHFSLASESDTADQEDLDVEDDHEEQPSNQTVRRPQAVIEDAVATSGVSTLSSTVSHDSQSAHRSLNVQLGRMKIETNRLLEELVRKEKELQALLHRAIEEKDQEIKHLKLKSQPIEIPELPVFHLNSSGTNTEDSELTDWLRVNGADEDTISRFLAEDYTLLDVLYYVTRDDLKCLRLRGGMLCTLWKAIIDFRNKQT
# [4] = target: Serine/threonine-protein kinase PAK 6 (Homo sapiens) (UniProt Q9NQU5); test: Selectivity interaction (KinomeScan (DiscoverX)) EUB0001049a PAK6; details: at 1 µM
# Serine/threonine-protein kinase PAK 6 (Homo sapiens), sequence (Q9NQU5 whole entry, looked up): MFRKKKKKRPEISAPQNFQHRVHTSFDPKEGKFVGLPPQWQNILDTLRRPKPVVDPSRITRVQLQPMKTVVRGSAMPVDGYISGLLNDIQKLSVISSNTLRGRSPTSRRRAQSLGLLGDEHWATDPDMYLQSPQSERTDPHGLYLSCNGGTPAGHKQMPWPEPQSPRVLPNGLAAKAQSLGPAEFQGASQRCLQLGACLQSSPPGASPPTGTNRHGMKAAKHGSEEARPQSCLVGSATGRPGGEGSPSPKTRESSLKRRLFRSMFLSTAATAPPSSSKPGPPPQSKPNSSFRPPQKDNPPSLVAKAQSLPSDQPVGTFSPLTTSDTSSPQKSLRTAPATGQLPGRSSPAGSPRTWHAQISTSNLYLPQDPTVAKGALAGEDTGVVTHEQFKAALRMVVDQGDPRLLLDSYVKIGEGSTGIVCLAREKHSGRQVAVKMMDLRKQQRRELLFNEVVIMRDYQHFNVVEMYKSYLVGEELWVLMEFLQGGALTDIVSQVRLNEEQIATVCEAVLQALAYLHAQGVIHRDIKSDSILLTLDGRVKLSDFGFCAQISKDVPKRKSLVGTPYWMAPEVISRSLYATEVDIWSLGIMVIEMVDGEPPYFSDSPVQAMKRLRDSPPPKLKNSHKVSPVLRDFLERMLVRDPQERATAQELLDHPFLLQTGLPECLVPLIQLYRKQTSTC
# [5] = target: Serine/threonine-protein kinase PLK3 (Homo sapiens, UniProt Q9H4B4); test: Selectivity interaction (KinomeScan (DiscoverX)) EUB0000618a PLK3; details: at 10 µM
# Serine/threonine-protein kinase PLK3, sequence (Q9H4B4 whole entry, looked up, canonical isoform): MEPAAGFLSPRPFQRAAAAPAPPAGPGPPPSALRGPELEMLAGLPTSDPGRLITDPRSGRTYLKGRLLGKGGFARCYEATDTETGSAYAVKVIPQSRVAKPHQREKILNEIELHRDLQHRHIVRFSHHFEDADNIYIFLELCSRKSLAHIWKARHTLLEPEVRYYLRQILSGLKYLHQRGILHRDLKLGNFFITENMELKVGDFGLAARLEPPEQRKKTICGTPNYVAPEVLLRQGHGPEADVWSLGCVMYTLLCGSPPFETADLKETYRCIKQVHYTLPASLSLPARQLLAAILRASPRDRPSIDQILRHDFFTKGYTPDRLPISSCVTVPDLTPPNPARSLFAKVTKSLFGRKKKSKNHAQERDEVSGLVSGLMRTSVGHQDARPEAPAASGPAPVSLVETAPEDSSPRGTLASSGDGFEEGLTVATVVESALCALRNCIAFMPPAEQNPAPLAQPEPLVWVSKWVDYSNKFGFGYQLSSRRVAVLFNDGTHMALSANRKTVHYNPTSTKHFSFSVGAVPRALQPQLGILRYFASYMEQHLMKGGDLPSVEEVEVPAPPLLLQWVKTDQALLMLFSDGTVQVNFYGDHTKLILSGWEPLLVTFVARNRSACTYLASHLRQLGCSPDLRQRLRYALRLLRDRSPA
# [6] = target: T3, Phosphorylase b kinase gamma catalytic chain, liver/testis isoform (Homo sapiens) (UniProt P15735); test: Selectivity interaction (Ambit KINOMEscan and KiNATiv profiling in Jurkat cells) EUB0000090b PHKG2; format: cell-based; details: at 1 µM
# T3 sequence (whole entry): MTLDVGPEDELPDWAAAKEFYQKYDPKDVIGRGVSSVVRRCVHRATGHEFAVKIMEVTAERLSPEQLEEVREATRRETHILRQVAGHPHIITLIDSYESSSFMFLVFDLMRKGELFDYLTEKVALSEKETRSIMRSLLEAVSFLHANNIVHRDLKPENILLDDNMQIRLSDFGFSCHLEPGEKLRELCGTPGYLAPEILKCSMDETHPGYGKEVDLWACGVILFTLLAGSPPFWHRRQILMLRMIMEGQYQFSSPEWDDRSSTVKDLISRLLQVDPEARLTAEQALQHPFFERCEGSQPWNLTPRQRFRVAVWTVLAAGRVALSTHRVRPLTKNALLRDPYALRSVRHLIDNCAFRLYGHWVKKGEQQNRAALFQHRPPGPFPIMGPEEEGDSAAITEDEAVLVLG
# [7] = target: Calcium/calmodulin-dependent protein kinase type II subunit delta (Homo sapiens) (UniProt Q13557); test: Selectivity interaction (ActivX KiNativ screen (ex vivo kinase selectivity in human PBMCs)) EUB0001619a CAMK2D; format: cell-based; details: PBMC, at 1 µM
# Calcium/calmodulin-dependent protein kinase type II subunit delta (Homo sapiens), sequence (Q13557 whole entry): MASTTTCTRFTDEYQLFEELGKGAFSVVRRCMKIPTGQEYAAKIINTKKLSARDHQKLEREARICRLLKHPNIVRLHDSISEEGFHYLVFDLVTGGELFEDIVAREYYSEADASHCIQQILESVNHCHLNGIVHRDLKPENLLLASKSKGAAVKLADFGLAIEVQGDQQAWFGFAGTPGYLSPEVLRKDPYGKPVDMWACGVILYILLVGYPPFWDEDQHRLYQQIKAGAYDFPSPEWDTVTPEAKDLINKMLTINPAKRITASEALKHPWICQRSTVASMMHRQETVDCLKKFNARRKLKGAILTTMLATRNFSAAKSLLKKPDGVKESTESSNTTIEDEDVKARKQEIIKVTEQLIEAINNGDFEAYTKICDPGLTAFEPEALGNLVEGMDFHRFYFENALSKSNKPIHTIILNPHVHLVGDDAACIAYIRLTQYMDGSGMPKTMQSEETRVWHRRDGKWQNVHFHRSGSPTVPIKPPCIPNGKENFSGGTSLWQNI
smiles,measurement,setting,value
CCN(CC)CCCCNc1ncc2cc(-c3cc(OC)cc(OC)c3)c(NC(=O)NC(C)(C)C)nc2n1,% of control,[1],100%
O=C(NOC[C@H](O)CO)c1ccc(F)c(F)c1Nc1ccc(I)cc1F,% of control,[2],100%
COc1cc(Nc2nc(C)cc(-c3cnn4nc(OC)ccc34)n2)cc(C(F)(F)F)c1,% of control,[3],80%
same,% of control,[4],82%
O[C@H]1CC[C@H](Nc2ncc3nc(Nc4c(F)cc(F)cc4F)n([C@H]4CCOC4)c3n2)CC1,% of control,[5],100%
CN(C)C/C=C/C(=O)Nc1ccc(C(=O)N2CCCC(Nc3ncc(Cl)c(-c4c[nH]c5ccccc45)n3)C2)cc1 (configuration not stated),% of control,[6],94%
N#Cc1cccc(-c2c[nH]c3ncnc(N4CCOCC4)c23)c1,% of inhibition,[7],-38%
